This note sets out measurements from ChEMBL document CHEMBL6114998, “Design, Synthesis, and Pharmacological Evaluation of Quinazoline and Quinoline Derivatives as Potent ENPP1 Inhibitors for Cancer Immunotherapy” (J Med Chem, 2025).

Series [1] is described as follows: Cmax in Sprague-Dawley rat at 10 mg/kg, iv measured upto 24 hrs by LC-MS/MS analysis. Format: ADME, organism-based. Conditions: in vivo.
The target of series [2] is T1, Ectonucleotide pyrophosphatase/phosphodiesterase family member 1 (Homo sapiens, UniProt P22413).
T1 sequence (P22413 whole entry): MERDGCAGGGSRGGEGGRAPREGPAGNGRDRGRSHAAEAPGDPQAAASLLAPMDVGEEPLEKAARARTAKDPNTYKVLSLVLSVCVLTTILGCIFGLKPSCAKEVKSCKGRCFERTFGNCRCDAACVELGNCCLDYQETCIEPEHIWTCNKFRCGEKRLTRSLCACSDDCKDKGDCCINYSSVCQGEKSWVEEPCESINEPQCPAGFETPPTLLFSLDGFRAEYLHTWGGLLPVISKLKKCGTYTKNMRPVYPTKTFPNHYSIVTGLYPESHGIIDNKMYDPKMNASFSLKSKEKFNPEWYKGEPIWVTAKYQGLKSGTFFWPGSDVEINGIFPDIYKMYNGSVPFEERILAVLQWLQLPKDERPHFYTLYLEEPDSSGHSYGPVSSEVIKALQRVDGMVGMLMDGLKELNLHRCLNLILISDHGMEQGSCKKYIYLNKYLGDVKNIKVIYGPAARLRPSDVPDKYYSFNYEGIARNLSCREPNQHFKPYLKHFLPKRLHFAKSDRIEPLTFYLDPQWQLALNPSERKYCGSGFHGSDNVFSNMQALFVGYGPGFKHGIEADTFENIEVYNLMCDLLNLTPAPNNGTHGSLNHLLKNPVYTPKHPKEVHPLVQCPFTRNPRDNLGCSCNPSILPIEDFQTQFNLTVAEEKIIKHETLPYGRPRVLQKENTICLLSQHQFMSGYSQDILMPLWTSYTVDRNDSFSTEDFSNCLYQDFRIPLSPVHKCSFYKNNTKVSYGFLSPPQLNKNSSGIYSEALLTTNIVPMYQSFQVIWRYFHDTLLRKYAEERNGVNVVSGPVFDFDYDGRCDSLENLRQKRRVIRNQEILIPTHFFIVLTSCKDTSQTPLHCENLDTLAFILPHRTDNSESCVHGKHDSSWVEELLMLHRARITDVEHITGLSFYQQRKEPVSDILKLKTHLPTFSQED
Description: Inhibition of ENPP1 in human MDA-MB-231 cells using p-NPh-5TMP as substrate at pH 9.5 measured after 60 mins. Format: cell-based.

For the next series, the system named is THP-1. Description: Activation of STING signalling pathway in human THP-1 cells assessed as increase in TBK1 phosphorylation at 300 nM preincubated with compound for 2 hrs followed by cGAMP addition and measured after 3 hrs by Western blot analysis. Format: cell-based. Conditions: filed as activator, time 5.0 hrs. (In western blotting, separated proteins are transferred to a membrane and probed.)

Series [3] deals with T1, Ectonucleotide pyrophosphatase/phosphodiesterase family member 1. Description: Inhibition of ENPP1 in human MDA-MB-231 cells using p-NPh-5TMP as substrate at pH 8.5 measured after 60 mins. In kind it is cell-based.
A short description of series [4]: AUC(0 to t) in Sprague-Dawley rat at 10 mg/kg, iv measured upto 24 hrs by LC-MS/MS analysis. Format: ADME, organism-based. Conditions: in vivo.
Series [5] is described as follows: Clearance in Sprague-Dawley rat at 10 mg/kg, iv measured upto 24 hrs by LC-MS/MS analysis. In kind it is ADME, organism-based. Conditions: in vivo.
A short description of series [6]: Apparent permeability across apical to basal side in human Caco-2 cells at 10 uM by LC-MS/MS analysis. In kind it is ADME, cell-based.
Series [7] can be described thus: Efflux ratio of apparent permeability from basolateral to apical side over apical to basolateral side in human Caco-2 cells at 10 uM by LC-MS/MS analysis. Format: ADME, cell-based. For orientation: Caco-2 monolayers are a common model of the intestinal barrier.
Series [8] concerns CT26. The experiment in a line: Antitumor activity against mouse CT26 cells allografted in female BALB/c mouse assessed as tumor growth inhibition at 200 mg/kg QD, ip measured every 2 days for 12 days relative to control. In kind it is functional. The note with it: CT26, 288 h, time 12 day, read-out: TGI.
The subject of series [9] is CT26. The experiment in a line: Antitumor activity against mouse CT26 cells allografted in female BALB/c mouse assessed as tumor growth inhibition at 200 mg/kg QD, ip measured every 2 days for 12 days in presence of anti-PD-L1 antibody relative to control. Format: functional. Conditions: CT26, 288 h, time 12 day, read-out: TGI.
Series [10] is described as follows: Toxicity in female BALB/c mouse allografted with mouse CT26 cells assessed as change in body weight at 200 mg/kg QD, ip in presence of anti-PD-L1 antibody measured every 2 days for 12 days. In kind it is organism-based. The note with it: in vivo, 288 h, time 12 day.
Series [11] has as its system CT26. The experiment in a line: Antitumor activity against mouse CT26 cells allografted in female BALB/c mouse assessed as increase in M1-type macrophages in tumor tissue at 200 mg/kg QD, ip measured every 2 days for 12 days by immunohistochemical analysis. The note with it: time 12.0 day. In kind it is functional, organism-based.
Series [12] concerns CT26. The experiment in a line: Antitumor activity against mouse CT26 cells allografted in female BALB/c mouse assessed as increase in M1-type macrophages in tumor tissue at 200 mg/kg QD, ip in presence of anti-PD-L1 antibody measured every 2 days for 12 days by immunohistochemical analysis. In kind it is functional, organism-based. The note with it: time 12.0 day.
The subject of series [13] is CT26. The experiment in a line: Antitumor activity against mouse CT26 cells allografted in female BALB/c mouse assessed as decrease in M2-type macrophages in tumor tissue at 200 mg/kg QD, ip measured every 2 days for 12 days by immunohistochemical analysis. In kind it is functional, organism-based. Conditions: time 12.0 day.
Series [14] deals with CT26. Description: Antitumor activity against mouse CT26 cells allografted in female BALB/c mouse assessed as decrease in M2-type macrophages in tumor tissue at 200 mg/kg QD, ip in presence of anti-PD-L1 antibody measured every 2 days for 12 days by immunohistochemical analysis. Format: functional, organism-based. The note with it: time 12.0 day.
The subject of series [15] is CT26. The experiment in a line: Antitumor activity against mouse CT26 cells allografted in female BALB/c mouse plasma assessed as increase in IP-10 secretion in tumor tissue at 200 mg/kg QD, ip in presence of anti-PD-L1 antibody measured every 2 days for 12 days by ELISA analysis. In kind it is functional, organism-based. Conditions: time 12.0 day. On the technique in general: In an ELISA, binding on a coated surface is turned into a signal by an enzyme label.

Series [16] deals with THP1-Dual KO-STING. Description: Activation of STING-mediated immune response in human THP1-Dual KO-STING cells assessed as cGAMP-induced ISRE activation at 1 uM preincubated with conditioned medium containing 36 hrs compound treated with human MDA-MB-231 cells and measured after 24 hrs by quanti-luc luciferase assay. Format: cell-based. The note with it: filed as activator, time 60.0 hrs.

Series [17] relates to THP1-Dual KO-STING. The experiment in a line: Cytotoxicity against human THP1-Dual KO-STING cells assessed as effect on cell viability at 1 uM followed by addition of conditioned medium containing 36 hrs compound pretreated human MDA-MB-231 cells measured after 24 hrs by celltiter-glo assay. The note with it: time 60.0 hrs. Format: functional, cell-based.
The species named for series [18] is Homo sapiens. The experiment in a line: Inhibition of TLK (unknown origin) at 1 uM by KINOMEscan assay.
The species entered for series [19] is Homo sapiens. The experiment in a line: Inhibition of STE (unknown origin) at 1 uM by KINOMEscan assay.
In series [20] the test system is CT26. Description: Antitumor activity against mouse CT26 cells allografted in female BALB/c mouse assessed as increase in CD8+T cells in tumor tissue at 200 mg/kg QD, ip in presence of anti-PD-L1 antibody measured every 2 days for 12 days by immunofluorescence analysis. Format: functional, organism-based. Conditions: time 12.0 day.
Series [21] has as its system CT26. Description: Antitumor activity against mouse CT26 cells allografted in female BALB/c mouse assessed as decrease in M2-type macrophages in tumor tissue at 200 mg/kg QD, ip measured every 2 days for 12 days by immunofluorescence analysis. In kind it is functional, organism-based. Conditions: time 12.0 day.

Activity calls are given as the source filed them. The rule behind the calls is not given here.

Turning to `COc1cccc2c(N3CCC(O)(CNS(N)(=O)=O)CC3)ncnc12`, in series [1], the highest level (Cmax) was 3220 ng/mL. The IC50 (as a rule, the point on the concentration scale where inhibition reaches its midpoint) came out at 1.53 nM in series [2] and 42 nM in series [3]. The outcome with THP-1, in the series with CT26 [11], in the series with CT26 [12], in the series on CT26 [13], with CT26 [14] and in the series with CT26 [15] was Active. The result with THP1-Dual KO-STING [16], with THP1-Dual KO-STING [17], with CT26 [20] and in the series on CT26 [21] was Active. The AUC(0-t) (commonly the area under the concentration-time curve up to a stated or last time point) at 24 h in series [4] was determined as 2030 ng·h/mL. Also, the clearance (commonly the volume of plasma or blood freed of the substance per unit of time) in series [5] is 84.5 mL/min/kg. Also, in [6], the Papp A→B (usually the apparent permeability from the apical to the basolateral side of a cell layer) at 10 µM amounted to 0.106 ×10⁻⁶ cm/s. Also, the efflux ratio – broadly, the permeability from basolateral to apical divided by that in the opposite direction, in the common usage – at 10 µM in series [7] stood at 20.1. The inhibition in vivo at 200 mg/kg is 39.9% in the series with CT26 [8] and 64.6% in the series on CT26 [9]. Also, the Activity entry in series [10] is on record as “Non-toxic”. Moreover, the inhibition result in the series listed under Homo sapiens [18] and in the series filed under Homo sapiens [19] was “inactive” each time.
